Laboratory results taken from patent publication US20060100140A1, “Combination of a) n-{5-[4-(4-methyl-piperazino-methyl)-benzoylamido]2-methylphenyl}-4- (3-pyridyl)-2-pyrimidine-amine and b) a histone deacetylase inhibitor for the treatment of leukemia” (priority 2002, published 2006).

Key:
Format in all cases: cell-based, human
[1] = tested on: K562 cells transfected with GFP alone; assay: Apoptosis in sorted transiently transfected cells; conditions: Table 8, 2.0 μM SAHA ± 250 nM Compound I for 24 hr
Protocol: (§1) Assessment of Apoptosis: After drug exposures, cytocentrifuge preparations are stained with Wright-Giemsa and viewed by light microscopy to evaluate the extent of apoptosis (i.e., cell shrinkage, nuclear condensation, formation of apoptotic bodies, etc.) as described previously (Yu et al., Nat. Rev. Cancer 1:294-202). For these studies, the percentage of apoptotic cells is determined by evaluating ≧500 cells/condition in triplicate. To confirm the results of morphological analysis, Annexin V/PI staining is used. Annexin V/PI (BD PharMingen, San Diego, Calif.) analysis of cell death is carried out as per the manufacturer's instructions. […] The slides are treated with acetic acid/ethanol (1:2), stained with terminal transferase reaction mixture containing 1× terminal transferase reaction buffer (0.25 units/μl terminal transferase, 2.5 mM CoCl2, and 2 pmol fluorescein-12-dUTM; Boehringer Mannheim, Indianapolis, Ind.), and visualized using fluorescence microscopy.
(§2) Transient transfections: Plasmids encoding enhanced green fluorescence protein under the transciptional control of the human cytomegalovirus (CMV) immediate-early promoter (pEGFP-C2), and HA-tagged activated MEK1 (S218D/S222D in pUSEEamp) are obtained from Clontech Laboratories (Palo Alto, Calif.) and Upstate Biotechnology (Lake Placid, N.Y.), respectively.

[2] = tested on: K562 cells transfected with GFP/constitutively active MEK1/2 fusion cDNA; assay: Apoptosis in sorted transiently transfected cells; conditions: Table 8; GFP/MEK; 2.0 μM SAHA ± 250 nM Compound I for 24 hr
Protocol: as §1, §2

[3] = tested on: K562 cells; assay: Clonogenic survival in soft agar; conditions: 2.0 μM SAHA ± 250 nM Compound I for 24 hr, washed, 12-day incubation
Protocol: Analysis of erythroid maturation of K562 cells is performed by monitoring the production of hemoglobin as previously described (Yang et al., J. Biol. Chem. 2001, 276:25742-52). Clonogenic Survival: Effects of drug treatment on the clonogenic survival of leukemia cells is determined using a previously described clonogenic assay (Yu et al., Mol. Pharmacol. 2001, 60: 143-54).

## O=C(CCCCCCC(=O)Nc1ccccc1)NO [SAHA, suberoylanilide hydroxamic acid]
[1]
  apoptosis: 22.5 ± 2.6%
[2]
  apoptosis: 19.8 ± 2.1%
[3]
  Clonogenic survival (% control): 21.8 ± 3.6 % control
